# Source: patent US8445680B2, “Tetrahydrothieno pyridines” (Merck Sharp & Dohme Corp., priority 2008, dated 2013)
# Structures can show the parent of a compound that is named as a salt.
# Biological target: T1, FLAG-tagged full length PHD2 (Homo sapiens, UniProt Q9GZT9)
# T1 construct: FLAG-tagged full length PHD2; FLAG; made in house; host or cells: baculovirus-infected Sf9 cells
# Test: PHD2 inhibition assay (time resolved fluorescence, HIF-1α peptide hydroxylation, VHL detection)
# Type: biochemical
# Settings: 0.2 μM 2-oxoglutarate, 0.5 μM HIF-1α peptide, 2 hr at room temperature; read-out: PHD2 Activity (PHD2 binding activity expressed as IC50)
# Procedure: To each well of a 96-well plate was added 1 μL of test compound in DMSO and 20 μl of assay buffer (50 mM Tris pH 7.4/0.01% Tween-20/0.1 mg/ml bovine serum albumin/10 μM ferrous sulfate/1 mM sodium ascorbate/20 μg/ml catalase) containing 0.15 μg/ml FLAG-tagged full length PHD2 expressed in and purified from baculovirus-infected Sf9 cells. After a 30 min preincubation at room temperature, the enzymatic reactions were initiated by the addition of 4 μL of substrates (final concentrations of 0.2 μM 2-oxoglutarate and 0.5 μM HIF-1α peptide biotinyl-[…]).
# T1 sequence (Q9GZT9 whole entry): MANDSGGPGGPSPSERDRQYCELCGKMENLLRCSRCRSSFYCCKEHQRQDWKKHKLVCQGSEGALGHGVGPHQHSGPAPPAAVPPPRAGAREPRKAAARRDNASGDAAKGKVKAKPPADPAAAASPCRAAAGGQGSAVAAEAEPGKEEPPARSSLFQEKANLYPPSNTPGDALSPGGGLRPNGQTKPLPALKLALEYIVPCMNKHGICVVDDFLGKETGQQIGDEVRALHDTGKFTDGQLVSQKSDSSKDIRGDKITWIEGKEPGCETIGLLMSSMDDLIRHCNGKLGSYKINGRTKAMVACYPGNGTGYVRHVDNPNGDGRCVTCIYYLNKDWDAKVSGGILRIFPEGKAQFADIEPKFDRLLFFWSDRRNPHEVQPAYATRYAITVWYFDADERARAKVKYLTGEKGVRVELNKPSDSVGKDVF
row,Structure (SMILES),IC50 [nM]
1,"O=C(O)CNC(=O)c1c(O)c2c(n(Cc3cnc(-c4ccccc4F)cn3)c1=O)CSC2 [Example 26, N-[(1-{[5-(2-fluorophenyl)pyrazin-2-yl]methyl}-4-hydroxy-2-oxo-1,2,5,7-tetrahydrothieno[3,4-b]pyridin-3-yl)carbonyl]glycine]",≤ 10
2,"O=C(O)CNC(=O)c1c(O)c2c(n(Cc3ccc(Cl)c(C(F)(F)F)c3)c1=O)CSC2 [Example 18, N-({1-[4-chloro-3-(trifluoromethyl)benzyl]-4-hydroxy-2-oxo-1,2,5,7-tetrahydrothieno[3,4-b]pyridin-3-yl}carbonyl)glycine]",≤ 10
3,"O=C(O)CNC(=O)c1c(O)c2c(n(Cc3ccc(Cl)cc3)c1=O)CSC2 [Example 16, N-{[1-(4-chlorobenzyl)-4-hydroxy-2-oxo-1,2,5,7-tetrahydrothieno[3,4-b]pyridin-3-yl]carbonyl}glycine]",≤ 10
4,"O=C(O)CNC(=O)c1c(O)c2c(n(-c3ccc(Br)cc3)c1=O)CSC2 [Example 12, N-{[1-(4-bromophenyl)-4-hydroxy-2-oxo-1,2,5,7-tetrahydrothieno[3,4-b]pyridin-3-yl]carbonyl]glycine]",≤ 10
5,"O=C(O)CNC(=O)c1c(O)c2c(n(Cc3cnn(-c4ccccc4)c3)c1=O)CSC2 [Example 24, N-({4-hydroxy-2-oxo-1-[(1-phenyl-1H-pyrazol-4-yl)methyl]-1,2,5,7-tetrahydrothieno[3,4-b]pyridin-3-yl}carbonyl)glycine]",≤ 10
6,"CCc1ccc(Cn2c3c(c(O)c(C(=O)NCC(=O)O)c2=O)CSC3)cc1 [Example 17, N-{[1-(4-ethylbenzyl)-4-hydroxy-2-oxo-1,2,5,7-tetrahydrothieno[3,4-b]pyridin-3-yl]carbonyl}glycine]",≤ 10
7,"O=C(O)CNC(=O)c1c(O)c2c(n(Cc3ccc(Cl)nc3)c1=O)CSC2 [Example 1, N-({1-[(6-chloropyridin-3-yl)methyl]-4-hydroxy-2-oxo-1,2,5,7-tetrahydrothieno[3,4-b]pyridin-3-yl}carbonyl)glycine]",≤ 10
8,"CC(C)(C)c1ccc(Cn2c3c(c(O)c(C(=O)NCC(=O)O)c2=O)CSC3)cc1 [Example 9, N-{[1-(4-tert-butylbenzyl)-4-hydroxy-2-oxo-1,2,5,7-tetrahydrothieno[3,4-b]pyridin-3-yl]caxbonyl]glycine]",≤ 10
9,"O=C(O)CNC(=O)c1c(O)c2c(n(Cc3ccc(C(F)(F)F)cc3)c1=O)CSC2 [Example 4, N-({4-hydroxy-2-oxo-1-[4-(trifluoromethyl)benzyl]-1,2,5,7-tetrahydrothieno[3,4-b]pyridin-3-yl]carbonyl)glycine]",≤ 10
10,"O=C(O)CNC(=O)c1c(O)c2c(n(Cc3coc(-c4ccccc4)n3)c1=O)CSC2 [Example 21, N-({4-hydroxy-2-oxo-1-[(2-phenyl-1,3-oxazol-4-yl)methyl]-1,2,5,7-tetrahydrothieno[3,4-b]pyridin-3-yl}carbonyl)glycine]",≤ 10
11,"Cc1ccc(-c2ccc(Cn3c4c(c(O)c(C(=O)NCC(=O)O)c3=O)CSC4)cc2)cc1 [Example 25, N-({4-hydroxy-1-[(4′-methylbiphenyl-4-yl)methyl]-2-oxo-1,2,5,7-tetrahydrothieno[3,4-b]pyridin-3-yl}carbonyl)glycine]",≤ 10
12,"CC(C)c1ccc(Cn2c3c(c(O)c(C(=O)NCC(=O)O)c2=O)CSC3)cc1 [Example 8, N-{[4-hydroxy-1-(4-isopropylbenzyl)-2-oxo-1,2,5,7-tetrahydrothieno[3,4-b]pyridin-3-yl]carbonyl]glycine]",≤ 10

# Results, then the compound that gave them:
row,IC50 [nM],Structure (SMILES)
1,≤ 10,"Cc1ccc(-c2ccc(Cn3c4c(c(O)c(C(=O)NCC(=O)O)c3=O)C[S+]([O-])C4)cc2)cc1 (stereo not drawn) [Example 59, N-({4-hydroxy-1-[(4′-methylbiphenyl-4-yl)methyl]-6-oxido-2-oxo-1,2,5,7-tetrahydrothieno[3,4-b]pyridin-3-yl}carbonyl)glycine]"
2,≤ 10,"O=C(O)CNC(=O)c1c(O)c2c(n(Cc3ccc(-c4ccc(OC(F)(F)F)cc4)cc3)c1=O)CSC2 [Example 36, N-[(4-hydroxy-2-oxo-1-{[4′-(trifluoromethoxy)biphenyl-4-yl]methyl}-1,2,5,7-tetrahydrothieno[3,4-b]pyridin-3-yl)carbonyl]glycine]"
3,≤ 10,"CC(=O)c1ccc(-c2ccc(Cn3c4c(c(O)c(C(=O)NCC(=O)O)c3=O)CSC4)cc2)cc1 [Example 28, N-({1-[(4′-acetylbiphenyl-4-yl)methyl]-4-hydroxy-2-oxo-1,2,5,7-tetrahydrothieno[3,4-b]pyridin-3-yl}carbonyl)glycine]"
4,≤ 10,"O=C(O)CNC(=O)c1c(O)c2c(n(Cc3cnc(-c4ccccc4Cl)cn3)c1=O)CSC2 [Example 53, N-[(1-{[-5-(2-chlorophenyl)pyrazin-2-yl]methyl}-4-hydroxy-2-oxo-1,2,5,7-tetrahydrothieno[3,4-b]pyridin-3-yl)carbonyl]glycine]"
5,≤ 10,"O=C(O)CNC(=O)c1c(O)c2c(n(Cc3ccc(-c4ccccc4Cl)nc3)c1=O)CSC2 [Example 41, N-[(l-{[6-(2-chlorophenyl)pyridinium-3-yl]methyl}-4-hydroxy-2-oxo-1,2,5,7-tetrahydrothieno[3,4-b]pyridin-3-yl)carbonyl]glycine trifluoroacetate]"
6,≤ 10,"O=C(O)CNC(=O)c1c(O)c2c(n(Cc3ccc(-c4ccccc4)cc3)c1=O)CSC2 [Example 29, N-{[1-(biphenyl-4-ylmethyl)-4-hydroxy-2-oxo-1,2,5,7-tetrahydrothieno[3,4-b]pyridin-3-yl]carbonyl}glycine]"
7,≤ 10,"O=C(O)CNC(=O)c1c(O)c2c(n(Cc3ccc(Cl)cc3)c1=O)CS(=O)(=O)C2 [Example 60, N-{[1-(4-chlorobenzyl)-4-hydroxy-6,6-dioxido-2-oxo-1,2,5,7-tetrahydrothieno[3,4-b]pyridin-3-yl]carbonyl}glycine]"
8,≤ 10,"CSc1ccccc1-c1ccc(Cn2c3c(c(O)c(C(=O)NCC(=O)O)c2=O)CSC3)cn1 [Example 47, N-{[4-hydroxy-1-({6-[2-(methylthio)phenyl]pyridinium-3-yl}methyl)-2-oxo-1,2,5,7-tetrahydrothieno[3,4-b]pyridin-3-yl]carbonyl}glycine trifluoroacetate]"
9,10 to 100,"O=C(O)CNC(=O)c1c(O)c2c(n(-c3ccc(-c4ccc(OC(F)(F)F)cc4)cc3)c1=O)CSC2 [Example 38, N-({4-hydroxy-2-oxo-1-[4′-(trifluoromethoxy)biphenyl-4-yl]-1,2,5,7-tetrahydrothieno[3,4-b]pyridin-3-yl}carbonyl)glycine]"
10,≤ 10,"O=C(O)CNC(=O)c1c(O)c2c(n(Cc3ccc(-c4ccc(F)cc4)nc3)c1=O)CSC2 [Example 40, N-[(1-{[6-(4-fluorophenyl)pyridinium-3-yl]methyl}-4-hydroxy-2-oxo-1,2,5,7-tetrahydrothieno[3,4-b]pyridin-3-yl)carbonyl]glycine trifluoroacetate]"
11,≤ 10,"CCc1ccc(Cn2c3c(c(O)c(C(=O)NCC(=O)O)c2=O)CS(=O)(=O)C3)cc1 [Example 66, N-{[1-(4-ethylbenzyl)-4-hydroxy-6,6-dioxido-2-oxo-1,2,5,7-tetrahydrothieno[3,4-b]pyridin-3-yl]carbonyl}glycine]"
12,≤ 10,"CCc1ccccc1-c1ccc(Cn2c3c(c(O)c(C(=O)NCC(=O)O)c2=O)CSC3)cn1 [Example 50, N-[(l-{[6-(2-ethylphenyl)pyridinium-3-yl]methyl}-4-hydroxy-2-oxo-1,2,5,7-tetrahydrothieno[3,4-b]pyridin-3-yl)carbonyl]glycine trifluoroacetate]"
13,≤ 10,"O=C(O)CNC(=O)c1c(O)c2c(n(Cc3ccc(-c4cccc(Cl)c4)nc3)c1=O)CSC2 [Example 39, N-[(l-{[6-(3-chlorophenyl)pyridinium-3-yl]methyl}-4-hydroxy-2-oxo-1,2,5,7-tetrahydrothieno[3,4-b]pyridin-3-yl)carbonyl]glycine trifluoroacetate]"
14,≤ 10,"O=C(O)CNC(=O)c1c(O)c2c(n(Cc3ccc(-c4ccccc4)cc3)c1=O)CS(=O)(=O)C2 [Example 64, N-{[1-(biphenyl-4-ylmethyl)-4-hydroxy-6,6-dioxido-2-oxo-1,2,5,7-tetrahydrothieno[3,4-b]pyridin-3-yl]carbonyl}glycine]"
15,≤ 10,"O=C(O)CNC(=O)c1c(O)c2c(n(Cc3ccc(-c4ccccc4F)nc3)c1=O)CSC2 [Example 43, N-[(l-{[6-(2-fluorophenyl)pyridin-3-yl]methyl}-4-hydroxy-2-oxo-1,2,5,7-tetrahydrothieno[3,4-b]pyridin-3-yl)carbonyl]glycine]"
16,≤ 10,"O=C(O)CNC(=O)c1c(O)c2c(n(Cc3ccc(Oc4ccc(Cl)cc4)cc3)c1=O)CSC2 [Example 33, N-({1-[4-(4-chlorophenoxy)benzyl]-4-hydroxy-2-oxo-1,2,5,7-tetrahydrothieno[3,4-b]pyridin-3-yl}carbonyl)glycine]"
17,≤ 10,"O=C(O)CNC(=O)c1c(O)c2c(n(Cc3ccc(-c4cccc(OC(F)(F)F)c4)nc3)c1=O)CSC2 [Example 49, N-{[4-hydroxy-2-oxo-1-({6-[3-(trifluoromethoxy)phenyl]pyridinium-3-yl}methyl)-1,2,5,7-tetrahydrothieno[3,4-b]pyridin-3-yl]carbonyl}glycine trifluoroacetate]"
18,≤ 10,"O=C(O)CNC(=O)c1c(O)c2c(n(Cc3cnc(-c4cc(F)ccc4F)cn3)c1=O)CSC2 [Example 56, N-[(l-{[5-(2,5-difluorophenyl)pyrazin-2-yl]methyl}-4-hydroxy-2-oxo-1,2,5,7-tetrahydrothieno[3,4-b]pyridin-3-yl)carbonyl]glycine]"
